Assays:
[1] = target: T1, human enzyme NAMPT (full length) (Homo sapiens, UniProt P43490); test: NMN fluorescence biochemical assay (stimulation of NMN synthesis by NAMPT); conditions: for EC50: NMN fluorescence assay, purified human NAMPT 100 nM, concentration giving half-maximal activation, read-out: Enzymatic EC50; for Enzymatic Emax: fold change of maximal activation compared to DMSO
T1 construct: human enzyme NAMPT (full length)
In short: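 Full-length human NAMPT (100 nM) was preincubated 15 min at 37 °C with compound in 50 mM Tris-HCl pH 7.5, 10 mM MgCl2, 2 mM DTT, then reacted 1 h at 37 °C with 50 μM NAM, 100 μM PRPP, 4 mM ATP (stated solution concentrations). NMN was derivatised with acetophenone/KOH then formic acid and read at Ex/Em 382/445 nm; EC50 and Emax (fold over DMSO) reported.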

[2] = tested on: endogenous NAMPT in U2OS cells; test: Cellular NAD+ modulation assay (NAD/NADH-Glo, U2OS cells); format: cell-based; conditions: Homo sapiens, 24 hours incubation, cellular NAD+; for maximal fold induction: read-out: Cellular Emax
In short: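 NAD/NADH-Glo luminescence quantified NAD+ after acid treatment (60 °C, 15 min) and neutralization of DTAB lysates. Beforehand, U2OS cells seeded 16 h earlier received compound concentration series for 24 h at 37 °C. Values given as half-maximal activation concentration (EC50) and maximal fold change versus DMSO (Emax).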

T1 sequence (P43490 whole entry): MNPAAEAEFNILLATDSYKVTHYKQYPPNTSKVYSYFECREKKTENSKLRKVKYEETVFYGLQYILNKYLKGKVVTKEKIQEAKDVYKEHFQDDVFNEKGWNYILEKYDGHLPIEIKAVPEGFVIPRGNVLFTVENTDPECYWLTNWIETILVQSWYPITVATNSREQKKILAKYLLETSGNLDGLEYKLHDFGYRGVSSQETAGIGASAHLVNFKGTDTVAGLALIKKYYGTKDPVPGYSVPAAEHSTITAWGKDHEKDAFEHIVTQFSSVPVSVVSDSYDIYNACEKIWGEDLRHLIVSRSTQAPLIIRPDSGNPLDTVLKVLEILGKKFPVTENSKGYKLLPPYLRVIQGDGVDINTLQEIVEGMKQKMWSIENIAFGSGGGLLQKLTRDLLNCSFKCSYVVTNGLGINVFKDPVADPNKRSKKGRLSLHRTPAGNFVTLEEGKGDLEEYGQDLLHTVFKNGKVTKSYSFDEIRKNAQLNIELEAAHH

SMILES	EC50 [1] [nM]	Enzymatic Emax [1]	EC50 [2] [nM]	maximal fold induction [2]
Cn1ncc(Cl)c1CC1c2cc(C#N)ccc2C(=O)N1Cc1ccc2[nH]nnc2c1 (stereo not shown) [Compound 327, 2-((1H-benzo[d][1,2,3]triazol-5-yl)methyl)-3-((4-chloro-1-methyl-1H-pyrazol-5-yl)methyl)-1-oxoisoindoline-5-carbonitrile]	500 to 5000	A (A>3)	< 500	1.2 to 1.5
O=C1c2ccccc2C(Cc2ncccc2Br)N1C/C=C/c1c[nH]nn1 (stereo not shown) [Compound 328, (E)-2-(3-(1H-1,2,3-triazol-4-yl)allyl)-3-((3-bromopyridin-2-yl)methyl)isoindolin-1-one]	< 500	B (3≥B>2)	< 500	> 1.5
O=C1c2ccccc2C(Cc2ncccc2Br)N1Cc1cc(F)c2[nH]nnc2c1 (stereo not shown) [Compound 329, 3-((3-bromopyridin-2-yl)methyl)-2-((7-fluoro-1H-benzo[d][1,2,3]triazol-5-yl)methyl) isoindolin-1-one]	< 500	B (3≥B>2)	5000 to 50000	> 1.5
O=C1c2ccccc2C(Cc2ncccc2Br)N1Cc1ccc2[nH]nnc2c1F (stereo not shown) [Compound 330, 3-((3-bromopyridin-2-yl)methyl)-2-((4-fluoro-1H-benzo[d][1,2,3]triazol-5-yl)methyl)isoindolin-1-one]	< 500	A (A>3)	500 to 5000	> 1.5
O=C1c2ccccc2C(Cc2ncccc2Br)N1Cc1ccc2[nH]nnc2c1 (stereo not shown) [Compound 331, 2-((1H-benzo[d][1,2,3]triazol-5-yl)methyl)-3-((3-bromopyridin-2-yl)methyl)isoindolin-1-one]	< 500	A (A>3)	< 500	> 1.5
O=C1c2ccccc2C(Cc2ncccc2Br)N1CC1CCc2[nH]nnc2C1 (stereo not shown) [Compound 332, 3-((3-bromopyridin-2-yl)methyl)-2-((4,5,6,7-tetrahydro-1H-benzo[d][1,2,3]triazol-5-yl)methyl)isoindolin-1-one]	500 to 5000	A (A>3)	< 500	> 1.5
Cn1nnc(Cl)c1CC1c2ccccc2C(=O)N1Cc1ccc2[nH]nnc2c1 (stereo not shown) [Compound 334, 2-((1H-benzo[d][1,2,3]triazol-5-yl)methyl)-3-((4-chloro-1-methyl-1H-1,2,3-triazol-5-yl)methyl)isoindolin-1-one]	500 to 5000	A (A>3)	< 500	> 1.5
Cn1nc(Cl)c(CC2c3ccccc3C(=O)N2Cc2ccc3[nH]nnc3c2)n1 (stereo not shown) [Compound 335, 2-((1H-benzo[d][1,2,3]triazol-5-yl)methyl)-3-((5-chloro-2-methyl-2H-1,2,3-triazol-4-yl)methyl)isoindolin-1-one]	500 to 5000	A (A>3)	< 500	> 1.5
Cn1ncc(Cl)c1CC1c2cccc(Cl)c2C(=O)N1Cc1ccc2[nH]nnc2c1 (stereo not shown) [Compound 336, 2-((1H-benzo[d][1,2,3]triazol-5-yl)methyl)-7-chloro-3-((4-chloro-1-methyl-1H-pyrazol-5-yl)methyl)isoindolin-1-one]	< 500	A (A>3)	< 500	> 1.5
Cc1nn(C)c(CC2c3ccccc3C(=O)N2Cc2ccc3[nH]nnc3c2)c1Cl (stereo not shown) [Compound 337, 2-((1H-benzo[d][1,2,3]triazol-5-yl)methyl)-3-((4-chloro-1,3-dimethyl-1H-pyrazol-5-yl)methyl)isoindolin-1-one]	< 500	A (A>3)	< 500	> 1.5
Cn1ncc(Cl)c1CC1c2c(F)cccc2C(=O)N1Cc1ccc2[nH]nnc2c1 (stereo not shown) [Compound 338, 2-((1H-benzo[d][1,2,3]triazol-5-yl)methyl)-3-((4-chloro-1-methyl-1H-pyrazol-5-yl)methyl)-4-fluoroisoindolin-1-one]	< 500	A (A>3)	< 500	> 1.5
Cn1ncc(Cl)c1CC1c2c(Cl)cccc2C(=O)N1Cc1ccc2[nH]nnc2c1 (stereo not shown) [Compound 339, 2-((1H-benzo[d][1,2,3]triazol-5-yl)methyl)-4-chloro-3-((4-chloro-1-methyl-1H-pyrazol-5-yl)methyl)isoindolin-1-one]	500 to 5000	A (A>3)	500 to 5000	> 1.5
Cn1ncc(Cl)c1CC1c2ccc(F)cc2C(=O)N1Cc1ccc2[nH]nnc2c1 (stereo not shown) [Compound 340, 2-((1H-benzo[d][1,2,3]triazol-5-yl)methyl)-3-((4-chloro-1-methyl-1H-pyrazol-5-yl)methyl)-6-fluoroisoindolin-1-one]	< 500	A (A>3)	< 500	> 1.5
Cc1nn(C)c(C#N)c1CC1c2ccccc2C(=O)N1Cc1ccc2[nH]nnc2c1 (stereo not shown) [Compound 341, 4-((2-((1H-benzo[d][1,2,3]triazol-5-yl)methyl)-3-oxoisoindolin-1-yl)methyl)-1,3-dimethyl-1H-pyrazole-5-carbonitrile]	< 500	A (A>3)	< 500	> 1.5
Cn1ncc(Cl)c1CC1c2cccc(F)c2C(=O)N1Cc1ccc2[nH]nnc2c1 (stereo not shown) [Compound 342, 2-((1H-benzo[d][1,2,3]triazol-5-yl)methyl)-3-((4-chloro-1-methyl-1H-pyrazol-5-yl)methyl)-7-fluoroisoindolin-1-one]	< 500	A (A>3)	< 500	> 1.5
Cn1ncc(Cl)c1CC1c2ccc(Cl)cc2C(=O)N1Cc1ccc2[nH]nnc2c1 (stereo not shown) [Compound 343, 2-((1H-benzo[d][1,2,3]triazol-5-yl)methyl)-6-chloro-3-((4-chloro-1-methyl-1H-pyrazol-5-yl)methyl)isoindolin-1-one]	< 500	A (A>3)	< 500	> 1.5
Cn1ncc(Cl)c1CC1c2cc(F)ccc2C(=O)N1Cc1ccc2[nH]nnc2c1 (stereo not shown) [Compound 344, 2-((1H-benzo[d][1,2,3]triazol-5-yl)methyl)-3-((4-chloro-1-methyl-1H-pyrazol-5-yl)methyl)-5-fluoroisoindolin-1-one]	500 to 5000	A (A>3)	< 500	> 1.5
O=C1c2ccccc2C(Cc2ncccc2Br)N1CCCc1c[nH]nn1 (stereo not shown) [Compound 347, 2-(3-(1H-1,2,3-triazol-4-yl)propyl)-3-((3-bromopyridin-2-yl)methyl)isoindolin-1-one]	500 to 5000	A (A>3)	500 to 5000	> 1.5
Cc1c(CN2C(=O)c3ccccc3C2Cc2ncccc2Br)ccc2[nH]c(=O)oc12 (stereo not shown) [Compound 349, 6-((1-((3-bromopyridin-2-yl)methyl)-3-oxoisoindolin-2-yl)methyl)-7-methylbenzo[d]oxazol-2(3H)-one]	500 to 5000	A (A>3)	5000 to 50000	> 1.5
Cn1ncc(Cl)c1CC1c2cc(C3CC3)ccc2C(=O)N1Cc1ccc2[nH]nnc2c1 (stereo not shown) [Compound 350, 2-((1H-benzo[d][1,2,3]triazol-5-yl)methyl)-3-((4-chloro-1-methyl-1H-pyrazol-5-yl)methyl)-5-cyclopropylisoindolin-1-one]	< 500	A (A>3)	< 500	> 1.5
N#Cc1cncc(C#N)c1CC1c2ccccc2C(=O)N1Cc1ccc2[nH]nnc2c1 (stereo not shown) [Compound 351, 4-((2-((1H-benzo[d][1,2,3]triazol-5-yl)methyl)-3-oxoisoindolin-1-yl)methyl)pyridine-3,5-dicarbonitrile]	< 500	A (A>3)	< 500	> 1.5
Cn1nc(C#N)c(CC2c3ccccc3C(=O)N2Cc2ccc3[nH]nnc3c2)c1Cl (stereo not shown) [Compound 352, 4-((2-((1H-benzo[d][1,2,3]triazol-5-yl)methyl)-3-oxoisoindolin-1-yl)methyl)-5-chloro-1-methyl-1H-pyrazole-3-carbonitrile]	< 500	A (A>3)	< 500	> 1.5
N#Cc1ccnc(C#N)c1CC1c2ccccc2C(=O)N1Cc1ccc2[nH]nnc2c1 (stereo not shown) [Compound 353, 3-((2-((1H-benzo[d][1,2,3]triazol-5-yl)methyl)-3-oxoisoindolin-1-yl)methyl)pyridine-2,4-dicarbonitrile]	< 500	A (A>3)	< 500	> 1.5
Cn1ncc(Cl)c1CC1c2cc(Cl)ccc2C(=O)N1Cc1ccc2[nH]nnc2c1 (stereo not shown) [Compound 354, 2-((1H-benzo[d][1,2,3]triazol-5-yl)methyl)-5-chloro-3-((4-chloro-1-methyl-1H-pyrazol-5-yl)methyl)isoindolin-1-one]	< 500	A (A>3)	< 500	> 1.5
Cc1ccnc(C#N)c1CC1c2cccc(F)c2C(=O)N1Cc1ccc2[nH]nnc2c1 (stereo not shown) [Compound 356, 3-((2-((1H-benzo[d][1,2,3]triazol-5-yl)methyl)-4-fluoro-3-oxoisoindolin-1-yl)methyl)-4-methylpicolinonitrile]	< 500	A (A>3)	< 500	> 1.5

— US20260078130A1, “NAMPT MODULATORS, PREPARATIONS, AND USES THEREOF” (SIRONAX LTD., priority 2022, published 2026)
